Results: patent US12692547B2, “Methods of treating cancers containing fusion genes” (UNIVERSITY OF PITTSBURGH—OF THE COMMONWEALTH SYSTEM OF …, priority 2016, dated 2026)
Blank lines part the entries; values can stand above or below the compound they belong to.

Tests used:
A-172 cells xenograft = assay: Kinase inhibitor treatment of SCID mice xenografted with A-172 (GMF) cells; assay type: in vivo, mouse; settings: for reduction of final tumor size: A-172, MAN2A1-FER present, vs DMSO controls, crizotinib 12.5 mg/kg, canertinib 10 mg/kg, 3 times a week, peritoneal injection
Source text: (§1) Treatment of Severe Combined Immunodeficient Mice Xenografted With Cancer Cells. For kinase inhibitor treatment experiments, PMF, GMF, HUH7, and HUH7/ko cells (2×10^7 cells) were xenografted into the subcutaneous region of SCID mice. […] Serial sections of formalin-fixed, paraffin-embedded lung, brain, liver, kidney, vertebra, and lymph node specimens were collected, stained with H&E, and examined microscopically.

[1] = tested on: PC3, A-172 or HUH7 with or without MAN2A1-FER; assay: Killing of cancer cell lines with or without MAN2A1-FER (summary over cell lines); assay type: cell-based; settings: Homo sapiens, read-out: IC50 values (50% inhibitory concentrations)
Source text: (§2) FIG. 18. […] Factions of cell death were then quantified by Annexin V and propridium iodide staining. […] Factions of cell death were then quantified by Annexin V and propridium iodide staining. […] Factions of cell death were then quantified by Annexin V and propridium iodide staining.
(§3) Since the kinase activity of MAN2A1-FER and EGFR activation are the drivers of MAN2A1-FER oncogenic activity, it is of interest to examine whether inhibition of the kinase activity of MAN2A1-FER or EGFR interrupts the oncogenic activity of MAN2A1-FER, and thus the growth of the tumors.

PC3 cells xenograft = assay: Kinase inhibitor treatment of SCID mice xenografted with PC3 (PMF) cells; assay type: in vivo, mouse; settings: for reduction of final tumor size: PC3, MAN2A1-FER present, vs DMSO controls, crizotinib 12.5 mg/kg, canertinib 10 mg/kg, 3 times a week, peritoneal injection
Source text: as §1

HUH7 cells xenograft = assay: Kinase inhibitor treatment of SCID mice xenografted with HUH7 or HUH7/ko cells; assay type: in vivo, mouse; settings: for reduction of final tumor size: HUH7, MAN2A1-FER present, vs DMSO controls, crizotinib 12.5 mg/kg, canertinib 10 mg/kg, 3 times a week, peritoneal injection
Source text: as §1

[2] = tested on: PC3, A-172 and HUH7 xenografted tumors; assay: Metastasis and mortality of treated SCID mice, all tumors pooled; assay type: in vivo, mouse; settings: for mortality of xenografted mice: tumors positive for MAN2A1-FER
Source text: as §1

[3] = tested on: GMF cells (A-172 with inducible MAN2A1-FER-FLAG); assay: Cell death by Annexin V and propidium iodide staining, GMF cells; assay type: cell-based; settings: Homo sapiens, A 172, GMF cells
Source text: as §2, §3

[4] = tested on: PMF cells (PC3 with inducible MAN2A1-FER-FLAG); assay: Cell death by Annexin V and propidium iodide staining, PMF cells; assay type: cell-based; settings: Homo sapiens
Source text: as §2, §3

HUH7 cells = assay: Cell death by Annexin V and propidium iodide staining, HUH7 cells and MAN2A1-FER knockout counterpart; assay type: cell-based; settings: Homo sapiens
Source text: as §2, §3

GST-MAN2A1-FER = target: T1, GST-MAN2A1-FER (Homo sapiens, UniProt P16591); assay: Phosphorylation of HisTAG-EGFR aa1-650 by GST-MAN2A1-FER with excessive peptide; assay type: biochemical; settings: excessive amount of peptide; HisTAG-EGFR aa1-650 substrate
T1 construct: while leaving the tyrosine kinase domain in FER largely intact; MAN2A1 N-terminal 703 amino acids (fusion partner, itself N-terminally GST-tagged); made in house; host or cells: Escherichia coli BL21; the other entry of the earlier key: MAN2A1 (Q16706, Alpha-mannosidase 2)

[5] = A-172, MAN2A1-FER not present, same regimen
[6] = MAN2A1-FER negative cells, control 1/18
[7] = all tumors (PC3, A-172, HUH7), MAN2A1-FER present, controls 11/18
[8] = Huh-7, HUH7 KO (MAN2A1-FER knockout)
[9] = Huh-7, HUH7 WT (MAN2A1-FER positive)

T1 sequence (P16591 with tags, fused parts or gaps): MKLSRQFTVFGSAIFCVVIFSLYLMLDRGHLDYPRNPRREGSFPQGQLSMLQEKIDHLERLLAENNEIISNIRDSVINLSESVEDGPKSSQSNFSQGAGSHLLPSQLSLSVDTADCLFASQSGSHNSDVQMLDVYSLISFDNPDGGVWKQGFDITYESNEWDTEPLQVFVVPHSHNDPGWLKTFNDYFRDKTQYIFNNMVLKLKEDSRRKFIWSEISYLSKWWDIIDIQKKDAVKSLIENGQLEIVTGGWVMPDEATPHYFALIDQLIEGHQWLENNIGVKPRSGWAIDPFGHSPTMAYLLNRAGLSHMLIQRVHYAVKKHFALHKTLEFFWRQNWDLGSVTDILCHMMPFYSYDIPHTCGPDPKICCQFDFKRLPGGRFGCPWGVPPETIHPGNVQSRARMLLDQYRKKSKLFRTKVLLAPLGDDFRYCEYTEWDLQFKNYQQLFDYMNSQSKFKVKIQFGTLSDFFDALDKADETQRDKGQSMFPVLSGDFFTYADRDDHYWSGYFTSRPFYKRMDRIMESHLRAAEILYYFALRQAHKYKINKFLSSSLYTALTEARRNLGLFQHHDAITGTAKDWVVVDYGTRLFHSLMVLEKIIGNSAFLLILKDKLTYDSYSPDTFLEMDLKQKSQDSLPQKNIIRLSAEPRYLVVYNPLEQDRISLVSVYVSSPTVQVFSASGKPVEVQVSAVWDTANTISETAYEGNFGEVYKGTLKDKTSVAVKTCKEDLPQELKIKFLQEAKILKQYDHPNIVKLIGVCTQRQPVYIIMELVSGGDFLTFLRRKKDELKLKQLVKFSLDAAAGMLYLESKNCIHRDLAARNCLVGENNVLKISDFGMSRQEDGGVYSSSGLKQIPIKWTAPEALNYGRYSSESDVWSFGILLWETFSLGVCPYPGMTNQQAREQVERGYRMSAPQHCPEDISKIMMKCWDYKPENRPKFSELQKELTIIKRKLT

Compound: C=CC(=O)Nc1cc2c(Nc3ccc(F)c(Cl)c3)ncnc2cc1OCCCN1CCOCC1 [canertinib]
reduction of tumor size (A-172 cells xenograft; [5]): 19.2% | reduction of final tumor size (A-172 cells xenograft): 73.2% | IC50 [1]: < 15 nM | reduction of tumor size (PC3 cells xenograft; PC3, MAN2A1-FER not present, same regimen): 32.0% | reduction of final tumor size (PC3 cells xenograft): 85.0% | reduction of tumor size (HUH7 cells xenograft; HUH7, MAN2A1-FER not present (knockout), same regimen): 40.2% | reduction of final tumor size (HUH7 cells xenograft): 81.7% | metastasis (mice with metastasis / mice) [2, 6]: 2/18 | metastasis (mice with metastasis / mice) [2, 7]: 0/18 | mortality of xenografted mice [2]: completely eliminated the mortality | IC50 ([3]; Tet+ (MAN2A1-FER-FLAG induced)): 10.7 nM | IC50 ([3]; Tet− (no MAN2A1-FER-FLAG)): 26.5 nM | IC50 ([4]; Tet+ (MAN2A1-FER-FLAG induced)): 10.9 nM | IC50 ([4]; Tet− (no MAN2A1-FER-FLAG)): 25.1 nM | IC50 (HUH7 cells; [8]): 30.3 nM | IC50 (HUH7 cells; [9]): 14.7 nM

Compound: C[C@@H](Oc1cc(-c2cnn(C3CCNCC3)c2)cnc1N)c1c(Cl)ccc(F)c1Cl [crizotinib]
increase of tumor size (A-172 cells xenograft; [5]): 4% | reduction of final tumor size (A-172 cells xenograft): 67.6% | reduction of final tumor size (PC3 cells xenograft): 78.6% | reduction of final tumor size (HUH7 cells xenograft): 80.7% | metastasis (mice with metastasis / mice) [2, 6]: 2/18 | metastasis (mice with metastasis / mice) [2, 7]: 0/18 | mortality of xenografted mice [2]: completely eliminated the mortality | IC50 ([3]; Tet+ (MAN2A1-FER-FLAG induced)): 33.1 nM | IC50 ([3]; Tet− (no MAN2A1-FER-FLAG)): 64.5 nM | IC50 ([4]; Tet+ (MAN2A1-FER-FLAG induced)): 20.8 nM | IC50 ([4]; Tet− (no MAN2A1-FER-FLAG)): 43.4 nM | IC50 (HUH7 cells; [8]): 52.9 nM | IC50 (HUH7 cells; [9]): 28.9 nM

blocking of phosphorylation of EGFR N-terminus by GST-MAN2A1-FER (GST-MAN2A1-FER): partially blocked
Compound: FLKTIQEVAGYVLIALNTVER [peptide 3]
